Patent US20070081967A1, “Revitalizing hair follicles with total parenteral nutrition or hyperalimentation for maximum hair growth” (priority 2005, published 2007)
Entries after “also recorded” stand apart in the source; their conditions may differ.

Legend:
alopecia = settings: cited from earlier work
[1] = Solubility of ingredients in solvents during preparation; settings: qualitative
Procedure: 3 grams of azelaic acid was ground up into a powder from “hairs” of this dicarboxylic acid. […] Next, 50 mg of vinpocetine is added to the mortar and also ground to a powder. The use of 10 mg tablets of vinpocetine can be used if the raw material in not available. […] At this point 26 cc (or ml) of isopropyl alcohol is added to the mortar and mixed to form the first suspension. […] These two powders are soluble in water which 5 ml of sterile water is added and stirred. At the point the two products can be combines with the final addition of 12 ml of propylene glycol. […] The final volume of 60 ml can be achieved by the “qs” or “adding up to” the 60 ml mark with sterile water.

SMILES: CC(C)(C)NC(=O)[C@H]1CC[C@H]2[C@@H]3CC[C@H]4NC(=O)C=C[C@]4(C)[C@H]3CC[C@]12C [Finasteride]
- time to loss of new hair after treatment is stopped (alopecia; after finasteride treatment is stopped): ≤ 1 year
- time to occurrence of hair growth (alopecia; balding men, after start of use): about 3 months
- success rate for treating alopecia (alopecia; reported success rate): 40%

SMILES: CCOC(=O)C1=C[C@]2(CC)CCCN3CCc4c(n1c1ccccc41)[C@@H]32 [Vinpocetine, 14-ethoxycarbonyl-3 alpha, 16 alpha-ethyl-14, 15-ebumamine]
- solubility in isopropyl alcohol [1]: slightly soluable
- solubility in organic solvents ([1]; solvents named in value): only soluable in DMSO, 100% ethanol or acetone; also recorded: only soluble in DMSO, 100% ethanol or acetone
